Experimental data from patent publication US20220370385A1, “COMPOSITIONS FOR USE IN INHIBITING SRC KINASE AND TREATING AND PREVENTING ASSOCIATED DISORDERS” (Enzene Biosciences Ltd., priority 2019, published 2022).

System: MDA-MB-468 cells
Experiment: MDA-MB-468 cell viability, CellTiter-Glo, 24 hrs
Assay type: cell-based, human
Conditions: 24 hrs incubation
Method: MDA-MB-468 cells, isolated from a pleural effusion of a patient with metastatic adenocarcinoma of the breast, is a triple negative breast cancer (TNBC) cell line. The IC 50 value of E05 or lapatinib (Sigma) or the structural analogues of E05 were tested in this cell line.
Briefly, MDA-MB-468 cells (ATCC #HTB-32) were seeded with a density of 5,000 cells per well in a 96 well white plate (Costar Cat #3917) in DMEM media supplemented with 10% FBS (assay medium). The plates were incubated at 37° C., 5% CO2 for 24 hr. E05 and analogues were diluted in the assay medium and added to the respective wells of the assay plate. The plates were further incubated at 37° C., 5% CO2 for 24 hrs. After the incubation, the cell viability was assessed using CellTiter-Glo® and the plates were read for luminescence using Cytation 5 (Biotek). The relative luminescence unit (RLU) obtained was plotted against the concentration and EC50 values were estimated using Graphpad Prism 5 software (FIG. 15 and Table 2).

Row | Structure (SMILES) | Activity (EC50) | EC50 (Homo sapiens)
1 | COc1ccc(C(=O)O)cc1O [E05_F, 3-Hydroxy-4-methoxy-benzoic acid (Isovamillic acid)] | Inactive | –
2 | COc1cc(C(=O)O)ccc1O [E05_G, 4-Hydroxy-3-methoxy-benzoic acid (Vanillic acid)] | Inactive | –

The next lines start with the values.

Row | Activity (EC50) | EC50 (Homo sapiens) | Structure (SMILES)
3 | Inactive | – | O=C(O)CCc1ccc(O)cc1 [E05_D, 3-(4-Hydroxyphenyl)-propionic acid (Phloretic acid)]
4 | – | 103 µM | Oc1ccccc1O [E05_E, 1,2-Dihydroxybenzene (Catechol)]
5 | Inactive | – | O=C(O)c1ccc(O)cc1O [E05_H, 2,4-Dihydroxybenzoic acid]
